Laboratory results published in ChEMBL document CHEMBL5137044, “Expansion of the S-CN-DABO scaffold to exploit the impact on inhibitory activities against the non-nucleoside HIV-1 reverse transcriptase” (Eur J Med Chem, 2022).
pEC50, pIC50: −log10 of the molar value.

Columns and labels:
[1] = test system: Human immunodeficiency virus 1; experiment: Antiviral activity against […] HIV-1 infected in human MT4 cells assessed as reduction in virus-induced cytopathic effect incubated for 5 days by MTT assay; assay type: functional, organism-based; details: Human immunodeficiency virus 1, MT4, 120 h
[2] = Cytotoxicity against human MT4 cells assessed as cell growth inhibition incubated for 5 days by MTT assay; assay type: toxicity, cell-based; details: time 5 day
[3] = Selectivity index, ratio of CC50 for human MT4 cells to EC50 for antiviral activity against NNRTI resistant HIV-1 infected in human MT4 cells; assay type: toxicity, cell-based; details: read-out: Ratio CC50/EC50
[4] = test system: Human immunodeficiency virus 1; experiment: Antiviral activity against drug-resistant HIV-1 L100I mutant infected in human MT4 cells assessed as reduction in virus-induced cytopathic effect incubated for 5 days by MTT assay; assay type: functional, organism-based; details: Human immunodeficiency virus 1, L100I mutant, MT4, 120 h
[5] = test system: Human immunodeficiency virus 1; experiment: Antiviral activity against drug-resistant HIV-1 K103 N mutant infected in human MT4 cells assessed as reduction in virus-induced cytopathic effect incubated for 5 days by MTT assay; assay type: functional, organism-based; details: Human immunodeficiency virus 1, K103 N mutant, MT4, 120 h
[6] = test system: Human immunodeficiency virus 1; experiment: Antiviral activity against drug-resistant HIV-1 Y181C mutant infected in human MT4 cells assessed as reduction in virus-induced cytopathic effect incubated for 5 days by MTT assay; assay type: functional, organism-based; details: Human immunodeficiency virus 1, Y181C mutant, MT4, 120 h
[7] = test system: Human immunodeficiency virus 1; experiment: Antiviral activity against drug-resistant HIV-1 Y188L mutant infected in human MT4 cells assessed as reduction in virus-induced cytopathic effect incubated for 5 days by MTT assay; assay type: functional, organism-based; details: Human immunodeficiency virus 1, Y188L mutant, MT4, 120 h
[8] = test system: Human immunodeficiency virus 1; experiment: Antiviral activity against drug-resistant HIV-1 E138K mutant infected in human MT4 cells assessed as reduction in virus-induced cytopathic effect incubated for 5 days by MTT assay; assay type: functional, organism-based; details: Human immunodeficiency virus 1, E138K mutant, MT4, 120 h
[9] = target: Human immunodeficiency virus type 1 reverse transcriptase (Human immunodeficiency virus 1, UniProt Q72547); experiment: Inhibition of recombinant wild-type p66/p51 HIV-1 reverse transcriptase incubated for 40 mins by picogreen dye-based spectrofluorometric analysis
[10] = Fold resistance, ratio of EC50 for antiviral activity against drug-resistant HIV-1 L100I mutant infected in human MT4 cells to EC50 for antiviral activity against […] HIV-1 infected in human MT4 cells; assay type: functional
[11] = Fold resistance, ratio of EC50 for antiviral activity against drug-resistant HIV-1 K103 N mutant infected in human MT4 cells to EC50 for antiviral activity against […] HIV-1 infected in human MT4 cells; assay type: functional
[12] = Fold resistance, ratio of EC50 for antiviral activity against drug-resistant HIV-1 Y181C mutant infected in human MT4 cells to EC50 for antiviral activity against […] HIV-1 infected in human MT4 cells; assay type: functional
[13] = Fold resistance, ratio of EC50 for antiviral activity against drug-resistant HIV-1 Y188L mutant infected in human MT4 cells to EC50 for antiviral activity against […] HIV-1 infected in human MT4 cells; assay type: functional
[14] = Fold resistance, ratio of EC50 for antiviral activity against drug-resistant HIV-1 E138K mutant infected in human MT4 cells to EC50 for antiviral activity against […] HIV-1 infected in human MT4 cells; assay type: functional

Row | SMILES | pEC50 [1] | CC50 at 120 h [2] | selectivity ratio [3] | pEC50 [4] | pEC50 [5] | pEC50 [6] | pEC50 [7] | pEC50 [8] | pIC50 [9] | Ratio EC50 [10] | Ratio EC50 [11] | Ratio EC50 [12] | Ratio EC50 [13] | Ratio EC50 [14]
1 | Cc1c(C(C#N)c2cccc(F)c2)nc(SC(C)C)[nH]c1=O (stereo unspecified) | 6.57 | 202 µM | 754 | 4.87 | 4.18 | 5.16 | < 3.70 | 6.02 | 6.08 | 50 | 245 | 26 | >753 | 4
2 | Cc1c(C(C#N)c2ccccc2Br)nc(SC(C)C)[nH]c1=O (stereo unspecified) | 6.94 | 77.6 µM | 676 | 5.70 | 4.55 | 5.28 | 4.27 | 6.70 | 6.70 | 17 | 246 | 46 | 469 | 2
3 | Cc1c(C(C#N)c2cccc(Cl)c2)nc(SC(C)C)[nH]c1=O (stereo unspecified) | 6.46 | 172 µM | 493 | 4.95 | 4.30 | 5.14 | < 4.16 | 6.06 | 6.15 | 32 | 144 | 21 | >199 | 2
4 | Cc1cc(C)cc(C(C#N)c2nc(SC(C)C)[nH]c(=O)c2C)c1 (stereo unspecified) | 7.10 | 220 µM | 2770 | 5.64 | 5.04 | 5.39 | 4.26 | 6.35 | 6.65 | 29 | 115 | 52 | 702 | 6
5 | Cc1c(C(C#N)c2ccc(C(F)(F)F)cc2)nc(SC(C)C)[nH]c1=O (stereo unspecified) | 5.28 | 39.8 µM | 8 | < 4.40 | < 4.40 | < 4.40 | < 4.40 | 5.04 | 4.88 | >8 | >8 | >8 | >8 | 2
6 | Cc1ccccc1C(C#N)c1nc(SC(C)C)[nH]c(=O)c1C (stereo unspecified) | 6.94 | 111 µM | 960 | 5.49 | 4.32 | 5.26 | 4.20 | 6.59 | 6.17 | 28 | 416 | 48 | 546 | 2
7 | Cc1c(C(C#N)c2ccc(Cl)cc2)nc(SC(C)C)[nH]c1=O (stereo unspecified) | 5.90 | 70.2 µM | 56 | < 4.84 | < 4.15 | < 4.15 | < 4.15 | 5.38 | 5.47 | >11 | >56 | >56 | >56 | 3
8 | COc1cccc(C(C#N)c2nc(SC(C)C)[nH]c(=O)c2C)c1 (stereo unspecified) | 6.86 | 176 µM | 1280 | 5.56 | 4.55 | 5.24 | 4.21 | 6.44 | 5.98 | 20 | 205 | 42 | 450 | 3
9 | COc1cc(F)cc(C(C#N)c2nc(SC(C)C)[nH]c(=O)c2C)c1 (stereo unspecified) | 6.91 | 161 µM | 1310 | 5.40 | 4.64 | 5.28 | 4.26 | 6.46 | 6.63 | 32 | 188 | 43 | 442 | 3
10 | Cc1c(C(C#N)c2ccc(Br)cc2)nc(SC(C)C)[nH]c1=O (stereo unspecified) | 6.17 | 47.1 µM | 71 | < 4.99 | < 4.33 | < 4.33 | < 4.33 | 5.90 | 5.75 | >15 | >70 | >70 | >70 | >2
11 | Cc1c(C(C#N)c2cc(Cl)cc(C(F)(F)F)c2)nc(SC(C)C)[nH]c1=O (stereo unspecified) | 5.38 | 23.1 µM | 6 | < 4.64 | < 4.64 | < 4.64 | < 4.64 | 4.96 | 5.45 | >6 | >6 | >6 | >6 | 3
12 | COc1ccc(C(C#N)c2nc(SC(C)C)[nH]c(=O)c2C)cc1 (stereo unspecified) | 5.53 | 37.1 µM | 13 | 5.01 | < 4.43 | < 4.43 | < 4.43 | 5.37 | 4.68 | 3 | >13 | >13 | >13 | 1
13 | Cc1c(C(C#N)c2cccnc2)nc(SC(C)C)[nH]c1=O (stereo unspecified) | 4.58 | 363 µM | 14 | 4.32 | < 3.44 | < 3.44 | < 3.44 | 4.27 | 3.50 | 2 | >14 | >14 | >14 | 2
14 | Cc1c(C(C#N)c2ccccn2)nc(SC(C)C)[nH]c1=O (stereo unspecified) | 5.83 | 304 µM | 207 | 4.34 | < 3.52 | 4.29 | < 3.52 | 5.42 | 5.03 | 31 | >207 | 35 | >207 | 3
15 | Cc1cccc(C(C#N)c2nc(SC(C)C)[nH]c(=O)c2C)c1 (stereo unspecified) | 6.85 | 167 µM | 1180 | 5.69 | 4.68 | 5.36 | 4.18 | 6.43 | 6.57 | 15 | 148 | 31 | 464 | 3
16 | Cc1c(C(C#N)c2ccccc2Cl)nc(SC(C)C)[nH]c1=O (stereo unspecified) | 7.17 | 89.2 µM | 1320 | 5.75 | 5.00 | 5.46 | 4.26 | 7.10 | 7.10 | 26 | 146 | 51 | 807 | 1
17 | Cc1c(C(C#N)c2cc(F)cc(Cl)c2)nc(SC(C)C)[nH]c1=O (stereo unspecified) | 6.42 | 139 µM | 363 | 4.72 | 4.33 | 4.90 | < 3.86 | 5.70 | 6.15 | 50 | 124 | 33 | >365 | 5
18 | Cc1c(C(C#N)c2cc(Cl)cc(Cl)c2)nc(SC(C)C)[nH]c1=O (stereo unspecified) | 6.18 | 28.9 µM | 44 | < 4.88 | < 4.54 | 4.94 | < 4.54 | 5.37 | 6.32 | >20 | >44 | 17 | >44 | 6
19 | Cc1c(C(C#N)c2c(F)cccc2Cl)nc(SC(C)C)[nH]c1=O (stereo unspecified) | 7.74 | 74.7 µM | 4050 | 5.97 | 5.48 | 5.85 | < 4.23 | 7.05 | 7.13 | 58 | 179 | 76 | 3191 | 5
